Measurements from the NIST ThermoML archive (doi:10.1021/je900503p).

How the values were obtained:
[1] = xn = mol fraction of the nth substance listed; settings: 101 kPa, Liquid
[2] = relative permittivity at zero frequency (dimensionless); xn = mol fraction of the nth substance listed; settings: 101 kPa, Liquid, Dekameter
[3] = refractive index (Na D-line) (dimensionless); xn = mol fraction of the nth substance listed; settings: 101 kPa, Liquid

O=C1CCCO1 [γ-butyrolactone] + CCC(C)O
Settings	mass density [kg/m3]	refractive index	relative permittivity at zero frequency
[1], 293.15 K, x1 = 0.0564	820.99	–	–
[1], 293.15 K, x1 = 0.1213	839.11	–	–
[1], 293.15 K, x1 = 0.2541	877.55	–	–
[1], 293.15 K, x1 = 0.3003	891.34	–	–
[1], 293.15 K, x1 = 0.3895	918.62	–	–
[1], 293.15 K, x1 = 0.4574	939.95	–	–
[1], 293.15 K, x1 = 0.5005	953.71	–	–
[1], 293.15 K, x1 = 0.5876	982.13	–	–
[1], 293.15 K, x1 = 0.6442	1001.11	–	–
[1], 293.15 K, x1 = 0.7127	1024.55	–	–
[1], 293.15 K, x1 = 0.8006	1055.41	–	–
[1], 293.15 K, x1 = 0.8554	1075.08	–	–
[1], 293.15 K, x1 = 0.9262	1101.09	–	–
[1], 293.15 K, x1 = 0.9785	1120.58	–	–
[1], 298.15 K, x1 = 0.0564	817.52	–	–
[1], 298.15 K, x1 = 0.1213	835.59	–	–
[1], 298.15 K, x1 = 0.2541	873.9	–	–
[1], 298.15 K, x1 = 0.3003	887.63	–	–
[1], 298.15 K, x1 = 0.3895	914.8	–	–
[1], 298.15 K, x1 = 0.4574	936.03	–	–
[1], 298.15 K, x1 = 0.5005	949.73	–	–
[1], 298.15 K, x1 = 0.5876	978.07	–	–
[1], 298.15 K, x1 = 0.6442	996.91	–	–
[1], 298.15 K, x1 = 0.7127	1020.25	–	–
[1], 298.15 K, x1 = 0.8006	1050.96	–	–
[1], 298.15 K, x1 = 0.8554	1070.55	–	–
[1], 298.15 K, x1 = 0.9262	1096.44	–	–
[1], 298.15 K, x1 = 0.9785	1115.89	–	–
[1], 303.15 K, x1 = 0.0564	814	–	–
[1], 303.15 K, x1 = 0.1213	831.99	–	–
[1], 303.15 K, x1 = 0.2541	870.15	–	–
[1], 303.15 K, x1 = 0.3003	883.83	–	–
[1], 303.15 K, x1 = 0.3895	910.88	–	–
[1], 303.15 K, x1 = 0.4574	932.02	–	–
[1], 303.15 K, x1 = 0.5005	945.67	–	–
[1], 303.15 K, x1 = 0.5876	973.9	–	–
[1], 303.15 K, x1 = 0.6442	992.68	–	–
[1], 303.15 K, x1 = 0.7127	1015.92	–	–
[1], 303.15 K, x1 = 0.8006	1046.52	–	–
[1], 303.15 K, x1 = 0.8554	1066.03	–	–
[1], 303.15 K, x1 = 0.9262	1091.83	–	–
[1], 303.15 K, x1 = 0.9785	1111.21	–	–
[1], 313.15 K, x1 = 0.0564	805.57	–	–
[1], 313.15 K, x1 = 0.1213	823.45	–	–
[1], 313.15 K, x1 = 0.2541	861.53	–	–
[1], 313.15 K, x1 = 0.3003	875.2	–	–
[1], 313.15 K, x1 = 0.3895	902.14	–	–
[1], 313.15 K, x1 = 0.4574	923.19	–	–
[1], 313.15 K, x1 = 0.5005	936.83	–	–
[1], 313.15 K, x1 = 0.5876	964.91	–	–
[1], 313.15 K, x1 = 0.6442	983.59	–	–
[1], 313.15 K, x1 = 0.7127	1006.75	–	–
[1], 313.15 K, x1 = 0.8006	1037.12	–	–
[1], 313.15 K, x1 = 0.8554	1056.44	–	–
[1], 313.15 K, x1 = 0.9262	1081.97	–	–
[1], 313.15 K, x1 = 0.9785	1101.4	–	–
[2], 293.15 K, x1 = 0.1009	–	–	17.91
[2], 293.15 K, x1 = 0.2112	–	–	19.08
[2], 293.15 K, x1 = 0.3009	–	–	20.56
[2], 293.15 K, x1 = 0.4008	–	–	22.53
[2], 293.15 K, x1 = 0.5088	–	–	25.16
[2], 293.15 K, x1 = 0.6003	–	–	27.69
[2], 293.15 K, x1 = 0.7001	–	–	30.91
[2], 293.15 K, x1 = 0.8055	–	–	34.66
[2], 293.15 K, x1 = 0.9011	–	–	38.29
[2], 298.15 K, x1 = 0.1009	–	–	16.66
[2], 298.15 K, x1 = 0.2112	–	–	17.89
[2], 298.15 K, x1 = 0.3009	–	–	19.48
[2], 298.15 K, x1 = 0.4008	–	–	21.48
[2], 298.15 K, x1 = 0.5088	–	–	24.01
[2], 298.15 K, x1 = 0.6003	–	–	26.59
[2], 298.15 K, x1 = 0.7001	–	–	29.67
[2], 298.15 K, x1 = 0.8055	–	–	33.02
[2], 298.15 K, x1 = 0.9011	–	–	37.47
[2], 303.15 K, x1 = 0.1009	–	–	16.75
[2], 303.15 K, x1 = 0.2112	–	–	18.21
[2], 303.15 K, x1 = 0.3009	–	–	19.37
[2], 303.15 K, x1 = 0.4008	–	–	21.28
[2], 303.15 K, x1 = 0.5088	–	–	23.71
[2], 303.15 K, x1 = 0.6003	–	–	26.26
[2], 303.15 K, x1 = 0.7001	–	–	29.48
[2], 303.15 K, x1 = 0.8055	–	–	33.39
[2], 303.15 K, x1 = 0.9011	–	–	36.73
[2], 313.15 K, x1 = 0.1009	–	–	16.09
[2], 313.15 K, x1 = 0.2112	–	–	17.48
[2], 313.15 K, x1 = 0.3009	–	–	18.55
[2], 313.15 K, x1 = 0.4008	–	–	20.43
[2], 313.15 K, x1 = 0.5088	–	–	22.86
[2], 313.15 K, x1 = 0.6003	–	–	25.55
[2], 313.15 K, x1 = 0.7001	–	–	28.79
[2], 313.15 K, x1 = 0.8055	–	–	32.73
[2], 313.15 K, x1 = 0.9011	–	–	36.05
[3], 293.15 K, x1 = 0.1009	–	1.4004	–
[3], 293.15 K, x1 = 0.2112	–	1.4009	–
[3], 293.15 K, x1 = 0.3009	–	1.4021	–
[3], 293.15 K, x1 = 0.4008	–	1.4043	–
[3], 293.15 K, x1 = 0.5088	–	1.4076	–
[3], 293.15 K, x1 = 0.6003	–	1.4112	–
[3], 293.15 K, x1 = 0.7001	–	1.4162	–
[3], 293.15 K, x1 = 0.8055	–	1.4221	–
[3], 293.15 K, x1 = 0.9011	–	1.4285	–
[3], 298.15 K, x1 = 0.1009	–	1.3976	–
[3], 298.15 K, x1 = 0.2112	–	1.3978	–
[3], 298.15 K, x1 = 0.3009	–	1.3986	–
[3], 298.15 K, x1 = 0.4008	–	1.4005	–
[3], 298.15 K, x1 = 0.5088	–	1.4036	–
[3], 298.15 K, x1 = 0.6003	–	1.4071	–
[3], 298.15 K, x1 = 0.7001	–	1.4119	–
[3], 298.15 K, x1 = 0.8055	–	1.4175	–
[3], 298.15 K, x1 = 0.9011	–	1.4236	–
[3], 303.15 K, x1 = 0.1009	–	1.394	–
[3], 303.15 K, x1 = 0.2112	–	1.3943	–
[3], 303.15 K, x1 = 0.3009	–	1.3952	–
[3], 303.15 K, x1 = 0.4008	–	1.3974	–
[3], 303.15 K, x1 = 0.5088	–	1.4004	–
[3], 303.15 K, x1 = 0.6003	–	1.4036	–
[3], 303.15 K, x1 = 0.7001	–	1.4082	–
[3], 303.15 K, x1 = 0.8055	–	1.4135	–
[3], 303.15 K, x1 = 0.9011	–	1.4195	–
[3], 313.15 K, x1 = 0.1009	–	1.3909	–
[3], 313.15 K, x1 = 0.2112	–	1.3906	–
[3], 313.15 K, x1 = 0.3009	–	1.3912	–
[3], 313.15 K, x1 = 0.4008	–	1.3925	–
[3], 313.15 K, x1 = 0.5088	–	1.3952	–
[3], 313.15 K, x1 = 0.6003	–	1.3984	–
[3], 313.15 K, x1 = 0.7001	–	1.4023	–
[3], 313.15 K, x1 = 0.8055	–	1.4078	–
[3], 313.15 K, x1 = 0.9011	–	1.4133	–
